The target of data set [1] is T1, Bromodomain testis-specific protein (Homo sapiens, UniProt Q58F21). Kind of data set: Inhibition of BRDT BD2 (unknown origin) after 30 mins by TR-FRET assay. On the technique in general: TR-FRET usually uses a lanthanide donor and a delayed reading to cut background.
The target in data set [2] is T2, Bromodomain-containing protein 2 (Homo sapiens, UniProt P25440). Kind of data set: Inhibition of human BRD2 BD1 after 30 mins by TR-FRET assay.
The species named for data set [3] is Homo sapiens. Description: Selectivity ratio of IC50 for human BRD2 BD1 to IC50 for human BRD2 BD2.
Data set [4] can be described thus: Solubility of the compound in FaSSIF at pH 6.5 after 16 hrs by HPLC method. The class given is physicochemical.
The species entered for data set [5] is Homo sapiens. Kind of data set: Selectivity ratio of IC50 for BRDT BD1 (unknown origin) to IC50 for BRDT BD2 (unknown origin).
Data set [6] can be described thus: Permeability of the compound by PAMPA. The class given is ADME. The following applies: read-out: permeability.
In data set [7] the test system is Blood. Kind of data set: Antiinflammatory activity in human whole blood assessed as inhibition of LPS-induced MCP1 release preincubated for 30 mins followed by LPS challenge measured after 24 hrs by immunoassay. It counts as functional, tissue-based.
The subject of data set [8] is PBMC. Description: cells. The settings on record: Homo sapiens, read-out: pIC50 (converted).
Description: Antiinflammatory activity in human PBMC assessed as inhibition of LPS-induced MCP1 release preincubated for 30 mins followed by LPS challenge measured after 24 hrs by immunoassay
Data set [9] addresses Bromodomain-containing protein 4 (Homo sapiens, UniProt O60885, Y97A).
The target in data set [10] is Bromodomain-containing protein 4 (Homo sapiens, UniProt O60885, Y390A).
Data set [11] addresses T3, Peregrin (Homo sapiens, UniProt P55201).
T3 sequence (P55201 whole entry): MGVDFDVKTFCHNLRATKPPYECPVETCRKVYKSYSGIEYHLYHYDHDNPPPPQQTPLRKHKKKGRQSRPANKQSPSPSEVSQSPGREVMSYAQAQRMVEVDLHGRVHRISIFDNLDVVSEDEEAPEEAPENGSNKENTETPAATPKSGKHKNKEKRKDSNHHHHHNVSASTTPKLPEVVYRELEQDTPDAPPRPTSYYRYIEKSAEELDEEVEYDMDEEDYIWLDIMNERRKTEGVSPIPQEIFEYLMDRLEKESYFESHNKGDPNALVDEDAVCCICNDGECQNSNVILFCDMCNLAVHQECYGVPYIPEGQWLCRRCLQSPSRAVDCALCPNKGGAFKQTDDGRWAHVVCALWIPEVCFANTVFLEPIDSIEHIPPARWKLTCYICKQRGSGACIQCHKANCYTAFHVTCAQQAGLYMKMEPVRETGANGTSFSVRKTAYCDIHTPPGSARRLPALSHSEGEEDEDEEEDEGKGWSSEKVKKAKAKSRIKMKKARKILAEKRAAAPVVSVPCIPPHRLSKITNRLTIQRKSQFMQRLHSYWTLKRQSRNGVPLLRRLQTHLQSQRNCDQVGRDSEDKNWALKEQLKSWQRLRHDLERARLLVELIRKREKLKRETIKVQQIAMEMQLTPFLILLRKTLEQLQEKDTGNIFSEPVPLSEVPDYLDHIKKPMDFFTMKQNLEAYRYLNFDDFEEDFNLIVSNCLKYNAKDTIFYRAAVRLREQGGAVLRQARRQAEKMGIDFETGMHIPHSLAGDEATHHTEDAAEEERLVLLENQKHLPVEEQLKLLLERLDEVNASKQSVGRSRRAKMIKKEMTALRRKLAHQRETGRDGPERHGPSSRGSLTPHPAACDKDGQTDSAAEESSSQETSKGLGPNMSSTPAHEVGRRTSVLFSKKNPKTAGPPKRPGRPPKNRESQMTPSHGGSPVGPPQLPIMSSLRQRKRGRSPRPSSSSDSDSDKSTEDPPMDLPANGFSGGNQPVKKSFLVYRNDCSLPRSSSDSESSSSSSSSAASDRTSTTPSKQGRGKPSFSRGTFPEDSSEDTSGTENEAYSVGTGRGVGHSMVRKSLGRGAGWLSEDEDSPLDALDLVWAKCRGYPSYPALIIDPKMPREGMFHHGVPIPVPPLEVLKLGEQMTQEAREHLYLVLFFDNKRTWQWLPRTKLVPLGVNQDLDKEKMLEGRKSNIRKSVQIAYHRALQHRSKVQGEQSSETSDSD
Description: Displacement of Alexa 647 ligand from 6H-Flag-Tev-BRPF1 (622 to 738 residues) (unknown origin) expressed in Escherichia coli BL21 (DE3) cells after 30 mins by TR-FRET assay.

The target in data set [12] is T2, Bromodomain-containing protein 2. Description: Inhibition of human BRD2 BD2 after 30 mins by TR-FRET assay.
In data set [13] the target is T4, Bromodomain-containing protein 3 (Homo sapiens, UniProt Q15059). Kind of data set: Inhibition of BRD3 BD1 (unknown origin) after 30 mins by TR-FRET assay.
T4 sequence (Q15059 whole entry): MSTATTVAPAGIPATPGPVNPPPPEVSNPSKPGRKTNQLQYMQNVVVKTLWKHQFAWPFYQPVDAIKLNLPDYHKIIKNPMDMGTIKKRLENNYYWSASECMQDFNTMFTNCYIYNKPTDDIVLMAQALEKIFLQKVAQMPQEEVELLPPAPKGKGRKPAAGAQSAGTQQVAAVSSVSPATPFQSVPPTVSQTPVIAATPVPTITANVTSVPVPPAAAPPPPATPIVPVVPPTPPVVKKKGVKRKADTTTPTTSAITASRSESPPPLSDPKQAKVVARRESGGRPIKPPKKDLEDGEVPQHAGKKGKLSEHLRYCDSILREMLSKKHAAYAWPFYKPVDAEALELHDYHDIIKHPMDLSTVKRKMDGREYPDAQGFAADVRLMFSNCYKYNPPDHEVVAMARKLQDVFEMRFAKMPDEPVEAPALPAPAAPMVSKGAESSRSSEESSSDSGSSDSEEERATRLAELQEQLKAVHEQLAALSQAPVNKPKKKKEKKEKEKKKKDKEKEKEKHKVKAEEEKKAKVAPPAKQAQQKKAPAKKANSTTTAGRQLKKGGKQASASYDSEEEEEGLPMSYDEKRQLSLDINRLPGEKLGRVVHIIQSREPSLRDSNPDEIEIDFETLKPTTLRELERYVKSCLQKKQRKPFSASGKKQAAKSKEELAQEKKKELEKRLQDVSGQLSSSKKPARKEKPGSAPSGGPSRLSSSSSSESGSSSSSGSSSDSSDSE
In data set [14] the target is T1, Bromodomain testis-specific protein. Kind of data set: Inhibition of BRDT BD1 (unknown origin) after 30 mins by TR-FRET assay.
Data set [15] can be described thus: Solubility of the compound in pH 7.4 phosphate buffered saline by chemiluminescent nitrogen detection method. It counts as physicochemical.
Data set [16] in a line: physchem. The following applies: buffer, pH 7.4, logD.
Description: (§1) Chromatographic hydrophobicity index, log D of the compound at pH 7.4 by HPLC method
The target of data set [17] is T4, Bromodomain-containing protein 3. Kind of data set: Inhibition of BRD3 BD2 (unknown origin) after 30 mins by TR-FRET assay.
Data set [18] is filed under the species Homo sapiens. Description: Selectivity ratio of IC50 for BRD3 BD1 (unknown origin) to IC50 for BRD3 BD2 (unknown origin).
For data set [19] the following is noted: buffer, pH 7.4.
Description: as §1

Two compounds from ChEMBL document CHEMBL4184317, “Discovery of Tetrahydroquinoxalines as Bromodomain and Extra-Terminal Domain (BET) Inhibitors with Selectivity for the Second Bromodomain” (J Med Chem, 2018) can be followed below.

The term solubility denotes the concentration that dissolves in the medium under given conditions. Read a high solubility as a readily soluble substance. The chromatographic logD is lipophilicity estimated from chromatographic retention. Low values mean a more hydrophilic compound, high ones a more lipophilic compound. By logD is commonly meant the decadic logarithm of the distribution of all forms, ionised or not, between an organic phase and buffer at a given pH.

Converted amounts (≈) assume the structure as drawn.

T2 sequence (P25440 whole entry): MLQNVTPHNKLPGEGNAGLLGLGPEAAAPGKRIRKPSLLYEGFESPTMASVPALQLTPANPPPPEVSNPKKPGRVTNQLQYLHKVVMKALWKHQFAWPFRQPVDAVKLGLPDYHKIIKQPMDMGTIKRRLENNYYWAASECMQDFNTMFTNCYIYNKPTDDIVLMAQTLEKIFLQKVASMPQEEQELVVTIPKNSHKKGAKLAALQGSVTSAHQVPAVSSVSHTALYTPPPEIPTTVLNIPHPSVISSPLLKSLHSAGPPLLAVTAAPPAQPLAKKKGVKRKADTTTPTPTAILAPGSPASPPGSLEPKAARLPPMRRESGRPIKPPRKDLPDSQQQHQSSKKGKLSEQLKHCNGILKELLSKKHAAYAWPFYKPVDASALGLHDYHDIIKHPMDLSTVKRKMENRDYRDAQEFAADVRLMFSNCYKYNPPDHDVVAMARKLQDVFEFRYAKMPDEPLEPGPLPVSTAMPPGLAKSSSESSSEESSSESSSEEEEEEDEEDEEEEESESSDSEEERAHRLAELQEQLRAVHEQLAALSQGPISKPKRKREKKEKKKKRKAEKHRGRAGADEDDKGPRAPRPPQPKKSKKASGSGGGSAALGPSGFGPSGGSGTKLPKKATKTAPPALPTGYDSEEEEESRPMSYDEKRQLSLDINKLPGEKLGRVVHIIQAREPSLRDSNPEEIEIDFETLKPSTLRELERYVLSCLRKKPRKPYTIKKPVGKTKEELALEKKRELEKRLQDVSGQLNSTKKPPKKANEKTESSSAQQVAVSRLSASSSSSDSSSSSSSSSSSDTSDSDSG

As to `CC(=O)N1c2ccc(-c3cnc(C(N)=O)nc3)cc2N(Cc2ccccc2CO)C[C@@H]1C1CC1`, the IC50 is 100 nM in [1]; 1580 nM in [2]; 398 nM in data set [7]; 63.1 nM in data set [8]; 50.1 nM in data set [9]; 2000 nM in data set [10]. Besides, the IC50 in data set [11] was over 100000 nM; in data set [12] it was 100 nM; in data set [13] it was 794 nM; in data set [14] it was 501 nM; in data set [17], 31.6 nM. Also, the Ratio IC50 was 16 in data set [3], 5 in [5] and 25 in data set [18]. In [4], this compound displayed a solubility at 16 h of 18 µg/mL (≈ 39.3 µM). In [6], the Papp came out at 13.5 ×10⁻⁶ cm/s. Besides, the concentration in solution in data set [15] (solubility) was 87 µM (≈ 39.8 µg/mL). Further, in data set [16], the chromatographic logD came to 3.

Turning to `CC(=O)N1c2ccccc2N(Cc2ccccc2CO)CC1C1CC1` (single isomer, unassigned), the IC50 was 1000 nM in data set [8], 200 nM in data set [9] and 15800 nM in [10]. In addition, the pH-dependent lipophilicity (logD) in [19] is reported as 4.7.
